# In patent US8399412B2, “Method of treating or preventing tissue deterioration, injury or damage due to periodontal disease or disease of oral mucosa, and/or downregulating NF-kappabeta or supressing NF-kappabeta-mediated actions” (priority 2006, dated 2013):
# Assays:
# IL-8 = assay: TNFα-induced IL-8 secretion by gingival fibroblasts (ELISA); type: cell-based, Human; details: for secreted IL-8 versus fibroblasts not treated with Tβ4: gingival fibroblasts, 20 ng/ml TNF alpha
# Experimental: Human gingival Fb grown to 80% confluence, serum-starved, pretreated with Tb4 for one hour then with 20 ng/ml TNFa±Tb4 for 24 hours. […] of conditioned medium was used for ELISA. After removing medium, cells are fixed, stained, and lysed. OD 550 nm readings are used to normalize ELISA data for total cell number. Media control values were negligible and are not shown.
# Human gingival fibroblasts (HGF-1, ATCC) were stimulated with TNFα (20 ng/ml), a potent pro-inflammatory cytokine widely used in in vitro models of inflammation.
# NFκB p65 subunit [1] = assay: NFκB p65 phosphorylation assay (CASE ELISA, phosphoserine 276) in HCET; type: cell-based, human; details: 30 minutes
# Experimental: HCET were cultured in wells of a 96-well plate until approximately 80% confluent. […] At each time point adherent cells were fixed in cell fixing buffer containing 4% glutaraldehyde according to the phosphorylation assay kit protocol (CASE, cellular activation of signaling ELISA for phosphoserine 276 of NFκB p65 subunit, SuperArray, Frederick, Md.). Fixed cells were then processed using phospho-specific (phosphoserine 276 p65) or pan-protein specific (nonphosphorylated p65) primary antibodies and HRP-conjugated secondary antibodies. Following incubation with developing and stop solutions provided with the kit, individual well absorbance was read at 450 nm. Variation in cell number in individual wells was corrected by assaying the OD 540 nm of stained cells following completion of the phosphorylation assay and performing numerical correction of the OD 450 nm values. The assay was repeated twice (n=8) and a representative result is presented as relative amounts of phosphorylated and nonphosphorylated NFκB in arbitrary units±SEM. Statistical analysis was performed using the unpaired Student's t-test with significance set at P<0.05.
# In addition to nuclear translocation, the p65 subunit of NFκB must undergo phosphorylation on several serine residues in order to be activated. […]
# NFκB [2] = assay: NFκB activity assay in TNF-α stimulated non-transformed human corneal epithelial cells (HCEC); type: cell-based; details: non-transformed human corneal epithelial culture, Tβ4 treatment, results not shown
# Experimental: Non-transformed human corneal epithelial cells (HCEC) at passage 3 were purchased from Cascade Biologics (Portland, Oreg.). […] HCEC were used for experiments at passage 4. The transformed human corneal epithelial cell line 10.014 pRSV-T (HCET) was additionally used in this study. HCET were maintained in serum-free KGM on tissue culture plastic coated with a fibronectin-collagen type I matrix. Cells were cultured in a standard tissue culture incubator at 37° C. and in an atmosphere of 5% CO2 and 95% room air with medium changes every two days.
# At each time point the culture medium was removed and the adherent cells were scraped from the dish into 1 ml of cold PBS. The solution was centrifuged at 3000 rpm for 5 minutes. The cell pellet was lysed in 1 ml of cell extraction buffer provided with the activity assay kit (TransAm NFκB p65 Transcription Factor Assay Kit, Active Motif, Carlsbad, Calif.) on ice for 30 minutes, with vortexing every 10 minutes. The extract was centrifuged at 13,000 rpm for 10 minutes at 4° C. and the supernatant was used for activity assays following the kit protocol. In addition to the activity assay, the ELISA for total NFκB p65 subunit protein was completed simultaneously using aliquots of the same supernatants. ELISA values were used to standardize the activity values to correct for differences in protein concentration in each sample. […]
# NFκB p65 subunit [3] = assay: Nuclear translocation of NFκB p65 by immunofluorescence microscopy in HCET; type: cell-based, human; details: Tβ4 1 μg/ml during TNF-α stimulation, 30 minutes
# Experimental: HCET were cultured on collagen-coated 4 chambered glass microscope slides to approximately 80% confluence. […] Cells maintained in culture medium only, or Tβ4 only were used as controls. Cells were fixed in 3.7% glutaraldehyde/PBS for 10 minutes then washed in PBS. Cells were permeabilized in 1% Triton X-100 for 5 minutes and washed again. The cells were then incubated with rabbit polyclonal antibodies specific for the N-terminus of human p65 NFκB (Santa Cruz Biotechnologies, Santa Cruz, Calif.) followed by FITC-conjugated goat anti-rabbit secondary antibodies. Digitized images were captured and stored (Axiophot fluorescence microscopy and imaging system, Carl Zeiss Medicine, Inc., Thornwood, N.Y.).
# The nuclear translocation of NFκB was also examined morphologically in HCET by immunofluoresence microscopy using an antibody specific for the p65 subunit.
# NFκB [4] = assay: NFκB activity assay (binding to consensus oligonucleotides) in TNF-α stimulated HCET; type: cell-based, human; details: TNF-α 10 ng/ml
# Experimental: At each time point the culture medium was removed and the adherent cells were scraped from the dish into 1 ml of cold PBS. The solution was centrifuged at 3000 rpm for 5 minutes. The cell pellet was lysed in 1 ml of cell extraction buffer provided with the activity assay kit (TransAm NFκB p65 Transcription Factor Assay Kit, Active Motif, Carlsbad, Calif.) on ice for 30 minutes, with vortexing every 10 minutes. The extract was centrifuged at 13,000 rpm for 10 minutes at 4° C. and the supernatant was used for activity assays following the kit protocol. In addition to the activity assay, the ELISA for total NFκB p65 subunit protein was completed simultaneously using aliquots of the same supernatants. ELISA values were used to standardize the activity values to correct for differences in protein concentration in each sample. The assays were repeated three times (n=3) and the results of a representative assay are reported as NFκB activity in arbitrary units±SEM. Statistical analysis was performed using the unpaired Student's t-test with significance set at P<0.05.
# We hypothesized that Tβ4 functions as a transcription factor mediator in addition to its other known cellular functions. […] Transcription factor activity was analyzed calorimetrically using an assay that measured the ability of NFκB to bind to oligonucleotides containing consensus κB binding motifs immobilized to a plastic substrate. […]
# NFκB p65 subunit [5] = assay: Nuclear NFκB p65 protein level ELISA in HCET nuclear fractions; type: cell-based, human; details: TNF-α 10 ng/ml, Tβ4 1 μg/ml, 30 minutes, P=0.0066
# Experimental: HCET were cultured until approximately 80% confluent. […] Cells maintained in culture medium only, or Tβ4 only were used as controls. The culture medium was removed and the adherent cells were scraped from the dish into 1 ml of cold PBS. The solution was centrifuged at 3000 rpm for 5 minutes. The cell pellet was resuspended in 0.5 ml hypotonic buffer (20 mM Tris-HCl, pH 7.4, 10 mM NaCl, 3 mM MgCl2) and incubated on ice for 15 minutes. 25 μl of 10% NP-40 was added with vortexing. The homogenate was centrifuged for 10 minutes at 3000 rpm at 4° C. The pellet was resuspended in 100 μl of the cell extraction buffer and incubated for 30 minutes on ice with vortexing every 10 minutes. The homogenate was centrifuged at 14,000 rpm for 30 minutes at 4° C. The resulting supernatant was used for the NFκB total p65 subunit ELISA. A representative analysis is presented as NFκB protein (pg/ml)±SEM. Statistical analysis was performed using the unpaired Student's t-test with significance set at P<0.05.
# Nuclear translocation is an essential downstream event in NFκB mediated gene transcription. […] HCET were treated for 30 minutes and the amount of NFκB protein in nuclear fractions was measured by ELISA. Only activated, phosphorylated NFκB is capable of translocating to the nucleus.
# gingival fibroblasts = assay: APOPercentage apoptosis assay in TNF-α stimulated gingival fibroblasts; type: cell-based, Human; details: TNF-α 20 ng/ml, 8 hours, 0.01 ug/ml Tβ4, p=0.0004
# Experimental: It is well documented that proteases from oral bacteria such as P. gingivalis can induce death in different cell types in vitro, including fibroblasts, epithelial cells, and endothelial cells. Apoptosis can also be induced as a component of the inflammatory response.
# The fibroblasts were then assayed using the APOPercentage assay (Accurate Chemical, Westbury, N.Y.), which detects changes in cell membrane phospholipids. […] The absorbance of released dye can be measured and correlated to the relative amount of apoptosis in the culture. […] There were a greater number of apoptotic cells in fibroblasts stimulated with TNFα compared to cells stimulated with TNFα and also treated with Tβ4.
substance,measurement,setting,value
Thymosin beta 4 [Tβ4],inhibition of TNFα-stimulated IL-8 secretion,"IL-8; HGF-1 fibroblasts, TNFα 20 ng/ml, 0.01 ug/ml Tβ4, 24 hours, p=0.0012",most inhibition
same,"IL-8 secretion, dose response","IL-8; HGF-1 fibroblasts, TNFα 20 ng/ml, several concentrations of Tβ4, 24 hours, FIG. 3",inhibited IL-8 secretion in a dose-dependent manner
same,secreted IL-8 versus fibroblasts not treated with Tβ4,"IL-8; 1 ug/ml Tβ4, 24 hours, FIG. 1, p=0.0004",significantly lower levels of secreted IL-8
same,secreted IL-8 versus fibroblasts not treated with Tβ4,"IL-8; 5 ug/ml Tβ4, 24 hours, FIG. 1, p=0.0016",significantly lower levels of secreted IL-8
same,secreted IL-8 versus fibroblasts not treated with Tβ4,"IL-8; Tβ4 0.001-5 ug/ml (all levels), 24 hours",lower levels of secreted IL-8
same,reduction of NFκB phosphorylation levels,"NFκB p65 subunit [1]; TNF-α 10 ng/ml, Tβ4 1 μg/ml",45%
same,proportion of phosphorylated NFκB,"NFκB p65 subunit [1]; Tβ4 present during TNF-α stimulation, 100% with TNF-α only",55%
same,NFκB activity after TNF-α stimulation,NFκB [2],decreased NFκB activity
same,NFκB p65 localization (fluorescence pattern),NFκB p65 subunit [3],mainly perinuclear
same,NFκB activity versus cells stimulated with TNF-α,"NFκB [4]; Tβ4 1 μg/ml, 5, 10, 15 and 20 minutes of stimulation",increased NFκB activity
same,TNF-α induced activation of NFκB,"NFκB [4]; Tβ4 1 μg/ml, 30 and 60 minutes",significantly suppressed
same,NFκB protein in nuclear fractions,NFκB p65 subunit [5],significant decrease
same,apoptotic cell death induced by TNF-α,gingival fibroblasts,significantly inhibits apoptotic cell death
